T1: ALK5 T204D (kinase domain of human ALK5, amino acids 200-503) (Homo sapiens, UniProt P36897, T204D)
T1 construct: The kinase domain of human ALK5 (amino acids 200-503); made in house; host or cells: insect cells (baculovirus expression)
T1 sequence (P36897 200-503 T204D): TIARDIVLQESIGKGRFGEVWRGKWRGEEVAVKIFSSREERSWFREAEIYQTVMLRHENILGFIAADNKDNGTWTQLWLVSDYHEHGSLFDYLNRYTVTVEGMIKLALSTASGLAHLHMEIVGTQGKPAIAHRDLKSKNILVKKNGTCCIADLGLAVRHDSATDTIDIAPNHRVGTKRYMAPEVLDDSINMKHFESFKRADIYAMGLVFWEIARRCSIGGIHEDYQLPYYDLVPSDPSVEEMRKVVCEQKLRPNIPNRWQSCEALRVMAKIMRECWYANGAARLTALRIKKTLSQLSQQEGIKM


Assays:
[1] = biological target: T1, ALK5 T204D (kinase domain of human ALK5, amino acids 200-503); experiment: ALK5 kinase activity, [33P] phosphate incorporation into casein; assay type: biochemical; conditions: casein substrate, 1 μM unlabelled ATP
Experimental: The kinase activity of ALK5 is assessed by measuring radiolabelled phosphate [33P] incorporation in to the generic substrate, casein. The kinase domain of human ALK5 (amino acids 200-503) is fused to an N-terminal histidine tag. The kinase activity of ALK5 is rendered constitutive via point mutation at amino acid 204 (threonine to aspartate modification, ALK5 T204D) and the kinase construct is engineered to be expressed from a baculovirus expression construct in insect cells. The purified, recombinantly-expressed histidine-tagged ALK5 T204D protein is dissolved at 5.4 mg/ml in 50 mM Tris-HCl pH 8.0, 150 mM NaCl, 5 mM DTT. ALK5 T204D is dissolved to 2.5 μg/ml in assay buffer (Assay buffer: 20 mM Tris-HCl pH 7.4, 10 mM MgCl2, 2 mM MnCl2) on the day of use.
Test compounds and reference compounds are dissolved in assay buffer without DTT containing 5% (v/v) DMSO. Stock solutions of test and reference compounds are diluted in assay buffer with DTT (1.25 mM) containing 4.5% (v/v) DMSO. 10 μl of test or reference compound are added to the appropriate wells of 96 well U-bottomed plate. Total enzyme activity is determined by measuring ALK5 T204D activity in the absence of ALK5 kinase inhibitor reference compounds. Non-specific binding (NSB) is determined by measuring the activity of ALK5 T204D in the presence of ALK5 kinase inhibitor reference compounds. 10 μl of dephosphorylated casein stock solution (dephosphorylated casein is dissolved in ddH2O at 20 mg/ml) is added per well (200 μg/well final assay concentration). 20 μl of ALK5 T204D (2.5 μg/ml solution) is added per well (50 ng/well final assay concentration). The plates are left to incubate at room temperature for 10 minutes.
10 μl of ATP mix is added to the well to initiate the reaction (0.66 nM [^33P]ATP/1 μM unlabelled ATP/well final assay concentration). The ATP mix is prepared as follows, unlabelled ATP (3 mM) is dissolved in ddH2O and pH adjusted to 7.4. The stock concentration of [^33P]ATP is 10 μCi/μl. The appropriate volume of [^33P]ATP is added to unlabelled ATP solution such that the final assay concentration per well is 0.1 μCi. Following addition of the ATP mix, the plates are incubated at room temperature for 50 minutes. The kinase reaction is terminated by the addition of 50 μL Stop Buffer (20 mM Tris-HCl pH 7.4, 10 mM EDTA).
75 μl/well from the reaction plate is transferred to a Multiscreen-IP plate (MultiScreen-IP plates are prepared by added 50 μL of 70% (v/v) ethanol per well and incubated for 5 minutes at room temperature. The ethanol is removed by aspiration via a MultiScreen HTS Vaccum Manifold unit (Millipore, Cat no: MSVMHT500). The plates are washed twice by adding 200 μl/well ddH2O). The MultiScreen-IP plate is incubated at room temperature for 30 minutes to allowing binding of casein to the plate. The MultiScreen-IP plates are washed three times by adding 200 μl/well 100 mM phosphoric acid solution and the gasket is carefully removed from the back of the MultiScreen-IP plate and the plate dried in the oven for 30 minutes. The MultiScreen-IP plate is backsealed, 50 μL of Microscint™20 is added, then the plates are topsealed and radiolabelled casein detected and quantified on a TopCount™ plate-reader using the ^33P scintillation protocol.

[2] = tested on: dimethylnitrosamine induced liver fibrosis; conditions: rat, cited from earlier work
[3] = tested on: bleomycin-induced pulmonary fibrosis; conditions: bleomycin-treated rats; cited from earlier work
[4] = dimethylnitrosamine induced liver fibrosis, given therapeutically

| Molecule | IC50 [1] [nM] | further results |
| --- | --- | --- |
| CC(C)N1CCN(C(=O)c2ccc(-c3cncc(-c4cc(Cl)nc(-c5ccccn5)n4)c3)cc2)CC1 [Example 1, {4-[5-(6-Chloro-2-pyridin-2-yl-pyrimidin-4-yl)-pyridin-3-yl]-phenyl}-(4-isopropyl-piperazin-1-yl)-methanone] | 335 | – |
| CC(C)N1CCN(C(=O)c2ccc(-c3cncc(-c4ccnc(-c5ccccn5)n4)c3)cc2)CC1 [Example 3, (4-Isopropyl-piperazin-1-yl)-{4-[5-(2-pyridin-2-yl-pyrimidin-4-yl)-pyridin-3-yl]-phenyl}-methanone] | 592 | – |
| Cc1cccc(-c2nc(OCCc3c[nH]c4ccccc34)cc(-c3cccnc3)n2)n1 [Example 6, 3-{2-[2-(6-Methyl-pyridin-2-yl)-6-pyridin-3-yl-pyrimidin-4-yloxy]-ethyl}-1H-indole] | 261 | – |
| Cc1cccc(-c2nc(OCc3ccccc3)cc(-c3cncc(-c4ccc(C(=O)N5CCN(C(C)C)CC5)cc4)c3)n2)n1 [Example 8, (4-{5-[6-Benzyloxy-2-(6-methyl-pyridin-2-yl)-pyrimidin-4-yl]-pyridin-3-yl}-phenyl)-(4-isopropyl-piperazin-1-yl)-methanone] | 265 | – |
| CC(C)N1CCN(C(=O)c2ccc(-c3cncc(-c4cc(OCc5ccccc5)nc(-c5ccccn5)n4)c3)cc2)CC1 [Example 11, {4-[5-(6-Benzyloxy-2-pyridin-2-yl-pyrimidin-4-yl)-pyridin-3-yl]-phenyl}-(4-isopropyl-piperazin-1-yl)-methanone] | 24 | – |
| c1ccc(-c2cc(-c3cn[nH]c3-c3ccccn3)ccn2)cc1 [GW6604] | – | inhibition of extracellular matrix deposition [2, 4]: 60%; prevention of the death rate [2, 4]: 40%; side effects ([2]; during the 3 weeks treatment): no obvious side effects |
| Follistatin: an antagonist of activin signalling (protein, UniProt P19883 30-344, looked up) Follistatin: GNCWLRQAKNGRCQVLYKTELSKEECCSTGRLSTSWTEEDVNDNTLFKWMIFNGGAPNCIPCKETCENVDCGPGKKCRMNKKNKPRCVCAPDCSNITWKGPVCGLDGKTYRNECALLKARCKEQPELEVQYQGRCKKTCRDVFCPGSSTCVVDQTNNAYCVTCNRICPEPASSEQYLCGNDGVTYSSACHLRKATCLLGRSIGLAYEGKCIKAKSCEDIQCTGGKKCLWDFKVGRGRCSLCDELCPDSKSDEPVCASDNATYASECAMKEAACSSGVLLEVKHSGSCNSISEDTEEEEEDEDQDYSFPISSILEW | – | effect on lung fibrosis [3]: attenuated lung fibrosis |
